Data on one molecule can be found in patent publication US9044474B2, “Compositions and methods for increasing drug efficacy in cancer” (The Ohio State University, priority 2010, dated 2015).

The test system of test [1] is Jurkat cell line. The test is described as follows: eIF2α phosphorylation immunoblot in cell lines (control). In kind it is cell-based. Here is the method:
(§1) Proteins extracted from whole cell lysates (50 μg/lane) were separated on polyacrylamide gels and transferred on nitrocellulose membrane. Antibodies used for immunoblots included LC3, IRE1α, TRAF2, PI3K III, ATG4C, ATG5-12, UVRAG, Beclin-1 (Cell Signaling, Boston, Mass.), GAPDH, Nrf2, ASK1, ULK1 (Santa Cruz Biotechnology), and Bif-1, ATG14-Barkor (Sigma-Aldrich, St Louis, Mo.). Species-appropriate secondary antibodies were obtained from BioRad Laboratories (Hercules, Calif.). Following antibody incubations, proteins were detected using a chemiluminescent substrate (BioRad Laboratories). For co-immunoprecipitations, TrueBlot beads (eBiosciences, San Diego, Calif.) and One-hour IP Western kit (GenScript, Piscataway, N.J.) were used according to manufacturer protocols. Quantification was done using FluorChem Q (Alpha Innotech, San Leandro Calif.).

The subject of test [2] is CLL cells. The test is described as follows: LC3-Lamp2 co-localization (autophagosome-lysosome fusion) by confocal microscopy in CLL cells. In kind it is cell-based, human. Particulars: CLL cells, 4 hours, flavopiridol 2 μM. Here is the method: After 4 hours exposure to agents, cells were washed in phosphate-buffered saline (PBS) and made adherent on a microscope slide by centrifugation in a Cytospin3 (Shandon) centrifuge. Immediately after cytospin, cells were fixed in cold acetone. […] Nuclei were stained blue with DAPI (Vector Laboratories, Burlingame, Calif.). Images were taken using a 60× objective and 4× digital zoom with Olympus Fluoview 1000 Laser Scanning Confocal microscope at the Ohio State University Campus Microscopy and Imaging Facility. ATF6 antibody was purchased from LifeSpan Biosciences (Seattle, Wash.) and Nrf2 was from Santa Cruz Biotechnology (Santa Cruz, Calif.). Nuclei were evaluated for ATF6 and Nrf2 using confocal microscopy to collect Z stacks, approximately 45 slices per cell, 0.2 μm each.
LC3 intensity and number of dots per cell were both assessed in the fluorescence images. Integrated intensity was measured using Metamorph v.7.0. To calculate the number of “dots” (local extreme point in pixel-intensity profile at which a number of high-intensity pixels form a cluster), a Gaussian filter was first applied to reduce noise. Cells were enumerated electronically by an improved watershed-based algorithm. To quantify co-localization, two binary nuclei images—red (R) and green (G)—are obtained. […]

Test [3] concerns IRE1-ASK1-TRAF2 complex. Put plainly: Co-immunoprecipitation of IRE1-ASK1-TRAF2 complex in samples from flavopiridol-treated CLL patients. On the set-up: species or system human. Particulars: CLL patient cells in vivo following flavopiridol infusion. Here is the method:
as §1

The subject of test [4] is p62. The test is described as follows: p62 immunoblot in CLL cells treated in vitro. In kind it is cell-based, human. The following applies: flavopiridol 2 μM, 4 hours. Here is the method: as §1
Test [5] concerns JNK1 and p38MAPK. Put plainly: Immunoblot of phosphorylated JNK1 and p38MAPK in samples from CLL patients treated with flavopiridol. The following applies: samples 4.5 hours following flavopiridol infusion. In kind it is in vivo, human. Here is the method: as §1
On the technique in general: In western blotting, separated proteins are transferred to a membrane and probed.

The test system of test [6] is p62. Put plainly: p62 immunoblot in samples from CLL patients treated with flavopiridol. The class given is in vivo, human. Particulars: samples at 4.5 hours post flavopiridol infusion. Here is the method:
(§2) In this trial, CLL cells were collected pre- and post-therapy 4.5 hours, day 1 (n=16). By confocal fluorescence microscopy, both increased autophagosome formation (P=0.0011) and fusion with lysosomes is observed (FIG. 3F). […] The level of autophagy, as assessed by LC3 fluorescence intensity, was overall greater in non-responders versus responders in both pre- and post-treatment samples (P=0.018); however, the increase in intensity at 4.5 hours post- vs. pre-treatment was only slightly higher for non-responders compared to responders (fold change of 2.51 vs. 1.82, P=0.3445). […] Collectively, these studies provide evidence that our in vitro observations are relevant to the clinical setting.
as §1, with “For co-immunoprecipitations, TrueBlot beads (eBiosciences, San Diego, Calif.) and One-hour IP Western kit (GenScript, Piscataway, N.J.) were used according to manufacturer protocols.” left out

For test [7], the system named is CLL cells. Put plainly: LC3 fluorescence in CLL cells from patients treated with flavopiridol in clinic. In kind it is in vivo, human. Here is the method: as §2
(§3) After 4 hours exposure to agents, cells were washed in phosphate-buffered saline (PBS) and made adherent on a microscope slide by centrifugation in a Cytospin3 (Shandon) centrifuge. Immediately after cytospin, cells were fixed in cold acetone. Next, the cells were incubated in blocking solution (2% bovine serum albumin in PBS) and stained for LC3 (Cell Signaling, Boston, Mass.)) and Lamp2 (Santa Cruz Biotechnology, Santa Cruz, Calif.) by incubating separately with the respective primary antibodies over night, in 4° C., followed by incubation with fluorescent secondary antibodies (Invitrogen, Carlsbad, Calif.): Alexa fluor 594 (red) anti-rabbit for LC3 and Alexa fluor 488 (green) anti-mouse for Lamp2. Nuclei were stained blue with DAPI (Vector Laboratories, Burlingame, Calif.). Images were taken using a 60× objective and 4× digital zoom with Olympus Fluoview 1000 Laser Scanning Confocal microscope at the Ohio State University Campus Microscopy and Imaging Facility. ATF6 antibody was purchased from LifeSpan Biosciences (Seattle, Wash.) and Nrf2 was from Santa Cruz Biotechnology (Santa Cruz, Calif.). Nuclei were evaluated for ATF6 and Nrf2 using confocal microscopy to collect Z stacks, approximately 45 slices per cell, 0.2 μm each.
LC3 intensity and number of dots per cell were both assessed in the fluorescence images. Integrated intensity was measured using Metamorph v.7.0. […] To quantify co-localization, two binary nuclei images—red (R) and green (G)—are obtained. The correlation value is calculated as the number of white pixels of (R&G) divided by the number of pixels of (RIG), where (R&G) is the intersection of R and G, and (RIG) is the union of R and G. The program used for cell counts and measurement of correlation index is based on MatLab software (Natick, Mass.) and it was developed by members of Department of Biomedical Informatics, The Ohio State University.
For the quantification of LC3 fluorescence in serial samples (in vivo data), CLL patients were classified as either “no response” (N=10) or “partial response” (N=6). […]

Test [8] deals with CLL cells. Put plainly: Intracellular calcium in CLL cells. In kind it is cell-based, human. The following applies: CLL cells treated with flavopiridol.
The subject of test [9] is ATF6 at GRP78 promoter region. The test is described as follows: ChIP assay of ATF6 at GRP78 promoter in cells from CLL patients undergoing flavopiridol treatment. The class given is in vivo, human. Particulars: CLL patient samples before and 4.5 hour after flavopiridol infusion. Here is the method: In brief, cells were treated with 37% formaldehyde to ensure crosslinking of proteins to DNA. Cells were lysed and sonicated to shear the chromatin to fragments of approximately 500 bp. Sheared chromatin was incubated with ATF6 antibody (LifeSpan Biosciences, Seattle, Wash.), followed by precipitation, washing and reversing of the crosslinks Purified DNA was then analyzed by real-time quantitative PCR using primers to the GRP78 promoter region. Primers were designed using Primer 3 software and purchased from IDT (Coralville, Iowa).

Test [10] deals with ATF6. The test is described as follows: ATF6 nuclear translocation by confocal fluorescence microscopy in CLL cells. In kind it is cell-based, human. Particulars: CLL patient cells, flavopiridol 2 μM or thapsigargin 1 μM, 4 hours. Here is the method:
as §3

Test [11] relates to JNK1 and p38MAPK. The test is described as follows: Immunoblot of phosphorylated JNK1 and p38MAPK in CLL cells in vitro. In kind it is cell-based, human. Particulars: flavopiridol 2 μM, thapsigargin 1 μM, F-ara-A 5 μM. Here is the method: as §1

Structures can show the parent of a compound that is named as a salt.

Consider `CN1CC[C@H](c2c(O)cc(O)c3c(=O)cc(-c4ccccc4Cl)oc23)[C@H](O)C1` [flavopiridol, (cis-5,7-dihydroxy-2-(2-chlorophenyl)-8-[4-(3-hydroxy-1-methyl)-piperidin-yl]-1-benzopyran-4-one)hydrochloride], for which the eIF2α phosphorylation result in test [1] is recorded as “dramatic EIF2α phosphorylation”. Moreover, in test [2], the “autophagy flux by LC3-Lamp2 co-localization, agent alone” value is “unrestricted autophagy flux was demonstrated by co-localization of LC3 and Lamp2”. Further, the “IRE1 and ASK1 association with TRAF2” value in [3] was “increase in IRE1 and ASK1 association with TRAF2”. In addition, in test [4], the p62 protein level result was “p62 levels are decreased”. In addition, the “CLL patients with JNK1 and p38MAPK phosphorylation” value in test [5] is “five of ten”. In [6], the p62 protein expression result is “a decrease in protein expression”. The “average increase in LC3 integrated intensity at 4.5 hours after flavopiridol infusion versus pretreatment” value in test [7] (CLL patients n=16, all) is 2.16 fold. Further, the “fold change of LC3 intensity 4.5 hours vs pre-treatment, non-responders” value in test [7] (non-responders (N=10)) is listed as 2.51 fold. For the same molecule, in test [7] (pre- and post-treatment samples, 95% CI 1.07, 1.95), the “overall LC3 intensity, non-responders compared to responders” value is on record as 1.44 times. Also, the “fold change of LC3 intensity 4.5 hours vs pre-treatment, responders” value in [7] (responders (N=6)) came out at 1.82 fold. In addition, the intracellular calcium result in [8] was “increase of intracellular calcium”. For the same molecule, the “binding of GRP78 promoter region by ATF6” value in test [9] is reported as “results were similar”. Moreover, the ATF6 nuclear translocation entry in test [10] is given as “increased nuclear translocation”. Also, the “phosphorylation of JNK1 and p38MAPK” value in test [11] is “induced the phosphorylation of both JNK1 and p38MAPK”.
